The text below walks through data of patent US20030083376A1, “Depot preparations” (priority 2001, published 2003).

Holding throughout (format): physicochemical
Series [1] is described as follows: Storage stability in soap. The note with it: stored in the dark for about one month at room temperature. The text has this:
(§1) The separate samples are then divided into portions.
The soap formulation below can be prepared in accordance with generally known methods. The data refer to percentages by weight.
The soap formulations A and B were stored in the dark for about one month at room temperature.

The nature of series [2]: Storage stability in powder laundry detergent. As to conditions: after one month.
Source text: as §1

Series [3] in a line: Hydrolysis rate in 1% strength aqueous soap solution, SPME headspace analysis. The method, then: To determine the hydrolysis rate, the depot preparation was added to a 1% strength aqueous soap solution, and the concentration of the depot preparation or of the free aldehyde was measured by SPME headspace analysis.

For the compound `CCCCCCC=O` [Aldehyde C7, n-Heptanal], the “Storage stability [%]” value in series [1] is recorded as 27%. In series [2], this compound yielded a storage stability of 27%.

Consider `CCCCCCC(OCCc1ccccc1)OC(C)=O` (centres unmarked) [Example 5, 1-(2-Phenylethoxy)heptyl Acetate], for which, in series [1], the “Storage stability [%]” value was determined as 93% and the “storage stability relative to the corresponding aldehyde” value is on record as “significantly greater storage stability”. In series [2], this compound displayed a storage stability of 93%. In addition, the “time to complete hydrolysis” value in series [3] was at most 5 min.

For `OCCc1ccccc1` [Phenylethyl alcohol, 2-Phenylethanol], in series [1], the “Storage stability [%]” value is 91%. Moreover, the storage stability in series [2] worked out at 91%.
